Results reported in patent US12054463B2, “Radiolabeled microtubule imaging compounds and uses thereof” (The Trustees of Columbia University in the City of New York, priority 2017, dated 2024).
Entries after “also recorded” stand apart in the source; their conditions may differ.

Tests used:
AMPA = experiment: Affinity to brain targets (panel); assay type: binding
5-HT1A = 5-HT1A (Homo sapiens, UniProt P08908); experiment: Affinity to brain targets (panel); assay type: binding
V1-2 = experiment: Affinity to brain targets (panel); assay type: binding; conditions: V1-2: vasopressin
BZP = experiment: Affinity to brain targets (panel); assay type: binding; conditions: BZP: benzodiazepine
GABA = experiment: Affinity to brain targets (panel); assay type: binding
α2B = α2B (Homo sapiens, UniProt P18089); experiment: Affinity to brain targets (panel); assay type: binding
M = experiment: Affinity to brain targets (panel); assay type: binding; conditions: M: muscarinic
5-HT2A = 5-HT2A (Homo sapiens, UniProt P28223); experiment: Affinity to brain targets (panel); assay type: binding
5-HT1B = 5-HT1B (Homo sapiens, UniProt P28222); experiment: Affinity to brain targets (panel); assay type: binding
Adenosine = experiment: Affinity to brain targets (panel); assay type: binding; conditions: Adenosine (A)
H3, H4 = experiment: Affinity to brain targets (panel); assay type: binding; conditions: H3, H4: histamine
5-HT2C = 5-HT2C (Homo sapiens, UniProt P28335); experiment: Affinity to brain targets (panel); assay type: binding
VMAT = experiment: Affinity to brain targets (panel); assay type: binding; conditions: VMAT (VMAT 1,2): vesicular monoamine transporter
NK = experiment: Affinity to brain targets (panel); assay type: binding; conditions: NK: neurokinin
β3 = β3 (Homo sapiens, UniProt P13945); experiment: Affinity to brain targets (panel); assay type: binding
D5 = D5 (Homo sapiens, UniProt P21918); experiment: Affinity to brain targets (panel); assay type: binding; conditions: D5: dopamine
β2 = β2 (Homo sapiens, UniProt P07550); experiment: Affinity to brain targets (panel); assay type: binding
β1 = β1 (Homo sapiens, UniProt P08588); experiment: Affinity to brain targets (panel); assay type: binding
EP = experiment: Affinity to brain targets (panel); assay type: binding; conditions: EP: prostanoid receptors
CB2 = CB2 (Homo sapiens, UniProt P34972); experiment: Affinity to brain targets (panel); assay type: binding; conditions: CB2: cannabinoid
5-HT7 = 5-HT7 (Homo sapiens, UniProt P34969); experiment: Affinity to brain targets (panel); assay type: binding
α1A-1C = experiment: Affinity to brain targets (panel); assay type: binding
5-HT2B = 5-HT2B (Homo sapiens, UniProt P41595); experiment: Affinity to brain targets (panel); assay type: binding
panel of kinases = conditions: cited from earlier work
NT = experiment: Affinity to brain targets (panel); assay type: binding; conditions: NT: neurotrophin
D4 = D4 (Homo sapiens, UniProt P21917); experiment: Affinity to brain targets (panel); assay type: binding; conditions: D4: dopamine
mGluR = experiment: Affinity to brain targets (panel); assay type: binding; conditions: mGluR (mGluRs): metabotropic glutamate receptors
α2C = α2C (Homo sapiens, UniProt P18825); experiment: Affinity to brain targets (panel); assay type: binding
PKC = experiment: Affinity to brain targets (panel); assay type: binding; conditions: PKC: Protein kinase C
variety of brain targets = experiment: Affinity for a variety of brain targets; assay type: binding; conditions: variety of brain targets (Table 1), except H4R
I = experiment: Affinity to brain targets (panel); assay type: binding
KA = experiment: Affinity to brain targets (panel); assay type: binding; conditions: KA (KAR): Kainate
Ca++ channel = experiment: Affinity to brain targets (panel); assay type: binding
Na+ Channel = experiment: Affinity to brain targets (panel); assay type: binding
Sigma1 = Sigma1 (Homo sapiens, UniProt Q99720); experiment: Affinity to brain targets (panel); assay type: binding
5-HT3 = 5-HT3 (Homo sapiens, UniProt P46098); experiment: Affinity to brain targets (panel); assay type: binding
5-HT1D = 5-HT1D (Homo sapiens, UniProt P28221); experiment: Affinity to brain targets (panel); assay type: binding
microtubules (MTs) = conditions: reference 9; cited from earlier work
CB1 = CB1 (Homo sapiens, UniProt P21554); experiment: Affinity to brain targets (panel); assay type: binding; conditions: CB1: cannabinoid
H2 = H2 (Homo sapiens, UniProt P25021); experiment: Affinity to brain targets (panel); assay type: binding; conditions: H2: histamine
5-HT1E = 5-HT1E (Homo sapiens, UniProt P28566); experiment: Affinity to brain targets (panel); assay type: binding
D3 = D3 (Homo sapiens, UniProt P35462); experiment: Affinity to brain targets (panel); assay type: binding; conditions: D3: dopamine
NMDA = experiment: Affinity to brain targets (panel); assay type: binding
D1, D2 = experiment: Affinity to brain targets (panel); assay type: binding; conditions: D1, D2: dopamine
α2A = α2A (Homo sapiens, UniProt P08913); experiment: Affinity to brain targets (panel); assay type: binding
MOR = MOR (Homo sapiens, UniProt P35372); experiment: Affinity to brain targets (panel); assay type: binding; conditions: MOR: mu opioid receptor
[1] = tested on: tau-overexpressing rTg4510 mice; experiment: MicroPET in AD animal model rTg4510; assay type: in vivo; conditions: 9-month old
Text: MicroPET studies with 9-month old, tau-overexpressing rTg4510 mice (Alzheimer disease-tau pathology) show ˜35% lower binding of [^11C]MPC-6827 brain activity in comparison to the control mice (FIGS. 12 and 13).

brain MT [2] = experiment: MicroPET in athymic nude male mice; assay type: in vivo
Method: (§1) Biodistribution of [^11C] […] The time-activity curves were expressed in g/mL normalized to the injected dose corrected for weight, to obtain standardized uptake values (SUVs). The brain SUV of [^11C] […] The heart, blood and muscles also show binding to [^11C] MPC-6827 and are consistent with known distribution of MTs in these organs. […] The lungs show higher uptake up to 30 minutes, followed by washout. 70% specific binding in brain was established at 30 minutes prior to the injection of radiotracer with 5 mg/kg MPC-6827 (FIG. 2) in mice.
Radioligand binding in thyroid gland, is also displaced during the blocking experiments.^21-23

[3] = tested on: amyloid overexpressing 5×FAD-AD mice; experiment: MicroPET in AD animal model 5×FAD; assay type: in vivo; conditions: 15 month-old
Text: In vivo imaging of [^11C]MPC-6827 in amyloid overexpressing 5×FAD-AD mice (15 month-old) show 40% lower binding of radiotracer in the whole brain model in comparison to the wild type controls (FIGS. 10 and 11). The tracer binding in frontal and mid brain regions show significant lower binding than whole brain in comparison to wild type mice.

brain MT [4] = experiment: Biodistribution in white male mice; assay type: in vivo
Method: as §1

MDA-MB-231 cells = experiment: Cell uptake and blocking; assay type: cell-based
rat brain = experiment: MicroPET in rat; assay type: in vivo
[5] = tested on: glioblastoma (GBM) U251 cells; experiment: In vitro cell uptake; assay type: cell-based
glioblastoma PDX cells = experiment: In vitro cell uptake; assay type: cell-based
[6] = Stability in 5% ethanol-saline formulation; assay type: physicochemical
Method: (§2) The radiochemical synthesis of [^11C] MPC-6827 was optimized and automated on aGE-FX2MeI/FX2M radiochemistry module by alkylating the desmethyl-MPC6827 precursor (6) with [^11C] MeI in DMF using NaOH. [^11C] MPC-6827 was produced with a radiochemical yield (RCY) of 40%, in >99% radiochemical purity and a specific activity of 2+0.5 Ci/μmol (decay corrected to end of synthesis (EOS)). The radioligand was stable in 5% ethanol-saline formulation for 4 h and the log Poct/wat was estimated as 3.8 by shake flask method.

[7] = tested on: prostate cancer (PC3) cells; experiment: In vitro cell uptake; assay type: cell-based
[8] = log Poct/wat by shake flask method; assay type: physicochemical; conditions: octanol/water
Method: as §2

Sequence of 5-HT2B (P41595 whole entry, species assumed): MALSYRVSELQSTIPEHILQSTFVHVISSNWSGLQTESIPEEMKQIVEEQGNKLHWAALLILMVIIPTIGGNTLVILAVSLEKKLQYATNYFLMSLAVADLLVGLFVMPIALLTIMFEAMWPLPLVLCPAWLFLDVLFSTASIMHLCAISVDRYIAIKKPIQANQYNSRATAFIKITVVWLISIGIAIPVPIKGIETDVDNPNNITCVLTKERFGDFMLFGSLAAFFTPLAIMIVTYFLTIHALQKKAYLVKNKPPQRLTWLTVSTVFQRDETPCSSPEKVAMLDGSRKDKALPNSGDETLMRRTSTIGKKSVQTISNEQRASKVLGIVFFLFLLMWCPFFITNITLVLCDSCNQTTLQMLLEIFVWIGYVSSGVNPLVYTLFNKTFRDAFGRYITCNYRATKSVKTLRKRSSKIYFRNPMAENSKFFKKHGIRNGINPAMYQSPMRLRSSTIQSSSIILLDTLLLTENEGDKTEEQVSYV
Sequence of 5-HT1E (P28566 whole entry, species assumed): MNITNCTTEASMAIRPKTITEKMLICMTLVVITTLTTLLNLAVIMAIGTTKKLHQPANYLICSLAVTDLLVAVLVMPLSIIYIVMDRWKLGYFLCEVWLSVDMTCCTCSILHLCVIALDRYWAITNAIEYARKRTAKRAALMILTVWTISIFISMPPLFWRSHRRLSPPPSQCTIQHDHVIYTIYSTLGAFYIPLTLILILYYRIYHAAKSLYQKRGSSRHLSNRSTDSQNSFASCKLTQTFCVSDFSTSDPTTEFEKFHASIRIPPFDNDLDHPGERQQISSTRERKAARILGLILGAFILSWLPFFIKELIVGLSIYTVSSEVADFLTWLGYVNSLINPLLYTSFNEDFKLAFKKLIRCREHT
Sequence of MOR (P35372 whole entry): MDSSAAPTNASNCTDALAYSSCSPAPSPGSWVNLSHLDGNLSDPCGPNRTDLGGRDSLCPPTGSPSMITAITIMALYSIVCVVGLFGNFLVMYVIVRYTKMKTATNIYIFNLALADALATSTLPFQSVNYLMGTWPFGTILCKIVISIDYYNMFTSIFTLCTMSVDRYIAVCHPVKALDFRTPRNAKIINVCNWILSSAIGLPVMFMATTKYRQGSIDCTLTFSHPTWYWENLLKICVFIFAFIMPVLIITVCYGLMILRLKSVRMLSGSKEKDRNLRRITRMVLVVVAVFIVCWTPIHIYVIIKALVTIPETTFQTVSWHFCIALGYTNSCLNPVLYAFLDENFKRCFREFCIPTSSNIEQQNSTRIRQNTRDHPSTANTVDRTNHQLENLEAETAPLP
Sequence of 5-HT1B (P28222 whole entry, species assumed): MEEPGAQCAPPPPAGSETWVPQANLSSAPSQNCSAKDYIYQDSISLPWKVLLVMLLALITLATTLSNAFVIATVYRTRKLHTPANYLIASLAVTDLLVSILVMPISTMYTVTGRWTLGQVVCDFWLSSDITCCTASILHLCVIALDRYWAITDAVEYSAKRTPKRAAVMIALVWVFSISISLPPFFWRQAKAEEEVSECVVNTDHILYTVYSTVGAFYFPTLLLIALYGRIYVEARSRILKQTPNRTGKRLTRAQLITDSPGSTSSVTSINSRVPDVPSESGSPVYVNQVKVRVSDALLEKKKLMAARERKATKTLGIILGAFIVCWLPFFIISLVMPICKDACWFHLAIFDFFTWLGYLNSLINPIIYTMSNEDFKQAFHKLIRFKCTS
Sequence of α2A (P08913 whole entry): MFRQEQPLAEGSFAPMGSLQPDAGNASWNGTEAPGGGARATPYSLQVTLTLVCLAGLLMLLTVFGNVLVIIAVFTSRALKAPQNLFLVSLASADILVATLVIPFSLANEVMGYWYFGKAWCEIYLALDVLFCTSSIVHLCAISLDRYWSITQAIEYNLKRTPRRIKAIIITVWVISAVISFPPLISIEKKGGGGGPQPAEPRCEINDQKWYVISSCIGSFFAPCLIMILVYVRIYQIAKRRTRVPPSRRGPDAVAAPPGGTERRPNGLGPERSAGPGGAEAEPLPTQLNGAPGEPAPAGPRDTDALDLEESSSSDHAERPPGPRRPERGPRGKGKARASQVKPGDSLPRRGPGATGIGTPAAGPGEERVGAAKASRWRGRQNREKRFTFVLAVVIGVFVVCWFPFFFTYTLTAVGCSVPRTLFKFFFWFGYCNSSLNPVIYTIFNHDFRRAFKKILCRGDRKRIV
Sequence of 5-HT3 (P46098 24-478, species assumed): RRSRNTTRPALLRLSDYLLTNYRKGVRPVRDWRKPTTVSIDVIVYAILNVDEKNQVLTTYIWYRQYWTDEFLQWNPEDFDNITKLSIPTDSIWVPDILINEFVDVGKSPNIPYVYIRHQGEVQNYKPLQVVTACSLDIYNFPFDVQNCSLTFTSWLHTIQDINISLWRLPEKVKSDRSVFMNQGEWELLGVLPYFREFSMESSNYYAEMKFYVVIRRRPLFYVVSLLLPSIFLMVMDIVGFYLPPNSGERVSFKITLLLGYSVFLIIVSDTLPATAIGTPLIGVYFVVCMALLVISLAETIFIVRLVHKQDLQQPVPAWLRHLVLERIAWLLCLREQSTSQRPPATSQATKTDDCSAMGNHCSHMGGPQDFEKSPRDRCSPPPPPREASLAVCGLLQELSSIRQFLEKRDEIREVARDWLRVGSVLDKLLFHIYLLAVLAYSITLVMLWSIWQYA
Sequence of 5-HT2A (P28223 whole entry): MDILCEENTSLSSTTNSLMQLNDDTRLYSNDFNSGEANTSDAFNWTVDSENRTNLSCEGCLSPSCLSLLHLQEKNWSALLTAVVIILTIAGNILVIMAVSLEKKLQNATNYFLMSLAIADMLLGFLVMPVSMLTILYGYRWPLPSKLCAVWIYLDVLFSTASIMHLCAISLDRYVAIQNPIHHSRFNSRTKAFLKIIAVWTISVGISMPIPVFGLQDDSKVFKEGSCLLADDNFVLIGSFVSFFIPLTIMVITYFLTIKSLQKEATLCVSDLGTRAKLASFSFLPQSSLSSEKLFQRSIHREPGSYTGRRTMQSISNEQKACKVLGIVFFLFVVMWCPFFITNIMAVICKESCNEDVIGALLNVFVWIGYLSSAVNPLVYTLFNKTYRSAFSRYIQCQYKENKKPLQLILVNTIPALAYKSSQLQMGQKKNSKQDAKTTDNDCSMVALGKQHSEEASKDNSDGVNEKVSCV
Sequence of β1 (P08588 whole entry): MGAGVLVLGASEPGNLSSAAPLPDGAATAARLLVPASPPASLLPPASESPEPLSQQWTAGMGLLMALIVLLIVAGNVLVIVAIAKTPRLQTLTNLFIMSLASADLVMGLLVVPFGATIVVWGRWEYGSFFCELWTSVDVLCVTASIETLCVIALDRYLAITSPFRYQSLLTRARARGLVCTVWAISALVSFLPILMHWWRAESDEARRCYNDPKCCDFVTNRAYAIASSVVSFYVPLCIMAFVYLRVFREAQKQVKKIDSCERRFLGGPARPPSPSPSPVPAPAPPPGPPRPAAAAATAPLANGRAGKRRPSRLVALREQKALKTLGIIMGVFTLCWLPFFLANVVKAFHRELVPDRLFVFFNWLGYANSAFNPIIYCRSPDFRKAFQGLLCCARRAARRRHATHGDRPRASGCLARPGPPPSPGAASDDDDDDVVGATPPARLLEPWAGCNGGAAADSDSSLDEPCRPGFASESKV
Sequence of D4 (P21917 whole entry): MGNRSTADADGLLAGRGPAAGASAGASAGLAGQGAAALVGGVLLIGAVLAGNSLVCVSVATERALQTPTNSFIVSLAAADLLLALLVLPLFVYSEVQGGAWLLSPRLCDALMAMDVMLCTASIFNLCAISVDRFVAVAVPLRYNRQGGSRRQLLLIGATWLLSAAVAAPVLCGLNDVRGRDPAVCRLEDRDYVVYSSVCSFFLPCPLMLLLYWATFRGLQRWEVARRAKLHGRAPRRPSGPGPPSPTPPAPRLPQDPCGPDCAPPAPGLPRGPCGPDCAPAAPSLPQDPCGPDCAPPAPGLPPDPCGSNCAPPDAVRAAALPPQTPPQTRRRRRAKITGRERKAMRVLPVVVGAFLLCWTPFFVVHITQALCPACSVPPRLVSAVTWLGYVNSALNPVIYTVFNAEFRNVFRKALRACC
Sequence of D5 (P21918 whole entry): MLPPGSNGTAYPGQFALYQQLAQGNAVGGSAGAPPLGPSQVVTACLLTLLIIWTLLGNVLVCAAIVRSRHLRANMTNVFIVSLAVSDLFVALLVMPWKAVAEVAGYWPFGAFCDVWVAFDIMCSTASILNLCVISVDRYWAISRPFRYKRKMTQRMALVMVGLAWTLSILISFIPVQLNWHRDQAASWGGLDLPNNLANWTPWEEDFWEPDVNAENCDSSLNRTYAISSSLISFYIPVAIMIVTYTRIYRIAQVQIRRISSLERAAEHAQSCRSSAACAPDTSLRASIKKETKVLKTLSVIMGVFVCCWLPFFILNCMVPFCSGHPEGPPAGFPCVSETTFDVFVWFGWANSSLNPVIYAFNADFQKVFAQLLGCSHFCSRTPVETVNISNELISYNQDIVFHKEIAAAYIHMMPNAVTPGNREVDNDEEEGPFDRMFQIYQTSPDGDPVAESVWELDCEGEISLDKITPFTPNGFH
Sequence of CB2 (P34972 whole entry, species assumed): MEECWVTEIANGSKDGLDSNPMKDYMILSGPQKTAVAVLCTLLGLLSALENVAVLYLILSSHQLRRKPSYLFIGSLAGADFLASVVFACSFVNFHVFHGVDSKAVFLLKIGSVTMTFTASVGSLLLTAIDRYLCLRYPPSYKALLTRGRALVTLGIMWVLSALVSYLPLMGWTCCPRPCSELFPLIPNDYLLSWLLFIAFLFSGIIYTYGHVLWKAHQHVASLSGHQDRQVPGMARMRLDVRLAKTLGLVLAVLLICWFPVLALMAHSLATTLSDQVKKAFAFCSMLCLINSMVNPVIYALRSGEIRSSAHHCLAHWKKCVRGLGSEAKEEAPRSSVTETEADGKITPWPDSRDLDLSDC

Structure (SMILES): COc1ccc(N(C)c2nc(C)nc3ccccc23)cc1 [MPC-6827, N-(4-methoxyphenyl)-N,2-dimethylquinazolin-4-amine]
- Ki (AMPA): > 10 µM
- Ki (5-HT1A): > 10 µM
- Ki (V1-2): > 10 µM
- Ki (BZP): > 10 µM
- Ki (GABA): > 10 µM
- Ki (α2B): > 10 µM
- Ki (M): > 10 µM
- Ki (5-HT2A): > 10 µM
- Ki (5-HT1B): > 10 µM
- Ki (Adenosine): > 10 µM
- Ki (H3, H4): > 10 µM
- Ki (5-HT2C): > 10 µM
- Ki (VMAT): > 10 µM
- Ki (NK): > 10 µM
- Ki (β3): > 10 µM
- Ki (D5): > 10 µM
- Ki (β2): > 10 µM
- Ki (β1): > 10 µM
- Ki (EP): > 10 µM
- Ki (CB2): > 10 µM
- Ki (5-HT7): > 10 µM
- Ki (α1A-1C): > 10 µM
- Ki (5-HT2B): > 10 µM
- binding to a panel / variety of kinases (panel of kinases): did not show binding
- Ki (NT): > 10 µM
- Ki (D4): > 10 µM
- Ki (mGluR): > 10 µM
- Ki (α2C): > 10 µM
- Ki (PKC): > 10 µM
- Ki (variety of brain targets): > 10 µM
- Ki (I): > 10 µM
- Ki (KA): > 10 µM
- Ki (Ca++ channel): > 10 µM
- Ki (Na+ Channel): > 10 µM
- Ki (Sigma1): 0.426 µM
- Ki (5-HT3): > 10 µM
- Ki (5-HT1D): > 10 µM
- competition at microtubule binding sites (microtubules (MTs)): compete with paclitaxel and colchicine, but not with vinblastine
- Ki (CB1): > 10 µM
- Ki (H2): 0.155 µM
- Ki (5-HT1E): > 10 µM
- Ki (D3): > 10 µM
- Ki (NMDA): > 10 µM
- Ki (D1, D2): > 10 µM
- Ki (α2A): > 10 µM
- Ki (MOR): 6.48 µM

Structure (SMILES): COc1ccc(N(C)c2nc(C)nc3ccccc23)cc1 [[^11C]MPC-6827]
- lower binding (brain activity) vs control mice [1]: ~35%
- brain uptake / BBB penetration (brain MT [2]; microPET, nude mice, baseline): excellent brain uptake; also recorded: penetrates the blood brain barrier (BBB) with excellent retention
- blocking of brain uptake (brain MT [2]; pre-administration of 5 mg/kg MPC-6827 and 5 mg/kg HD-800 (i.v.)): substantially blocked
- lower binding of radiotracer in the whole brain vs wild type controls [3]: 40%
- BBB penetration and brain retention (brain MT [4]; biodistribution, white male mice): penetrated the BBB and was retained in the brain
- specific binding in brain (brain MT [4]; mice, 30 minutes, blocking with 5 mg/kg MPC-6827): 70%
- brain SUV (brain MT [4]; mice, compared with established PET tracers): higher than that of the established brain PET/periphery PET tracers
- binding site on microtubules (MDA-MB-231 cells): binds to taxane and colchicine binding sites of microtubules
- incubation time to equilibrium binding (MDA-MB-231 cells): 60 min
- specific binding (MDA-MB-231 cells; with 5 μM MPC-6827): 95%
- specific binding (MDA-MB-231 cells; with 5 μM MTA HD-800): 95%
- specific binding (MDA-MB-231 cells; with 5 μM colchicine): 65%
- specific binding (MDA-MB-231 cells; with 5 μM docetaxel): 88%
- specific binding (MDA-MB-231 cells; with 5 μM paclitaxel): 78%
- BBB penetration and retention in brain (rat brain): BBB penetration and excellent retention
- uptake and specific binding [5]: excellent uptake and specific binding
- uptake and specific binding (glioblastoma PDX cells): excellent uptake and specific binding
- stable in 5% ethanol-saline formulation [6]: 4 h
- uptake and specific binding [7]: excellent uptake and specific binding
- logP [8]: 3.8
